Experimental data taken from publication PMC6691788, “Design and synthesis of phthalazine-based compounds as potent anticancer agents with potential antiangiogenic activity via VEGFR-2 inhibition” (Journal of Enzyme Inhibition and Medicinal Chemistry, 2019).

How the values were obtained:
K-562 = test: NCI 60 cell panel SRB screen; format: cell-based; conditions: Homo sapiens, K562; for activity at 10 µM: K-562, single dose 10 μM, read-out: percent cell growth promotion
MOLT-4 = test: NCI 60 cell panel SRB screen; format: cell-based; conditions: Homo sapiens; for activity at 10 µM: MOLT-4, single dose 10 μM, read-out: percent cell growth promotion
A549/ATCC = test: NCI 60 cell panel SRB screen; format: cell-based; conditions: Homo sapiens; for activity at 10 µM: single dose 10 μM, read-out: percent cell growth promotion
NCI-H226 = test: NCI 60 cell panel SRB screen; format: cell-based; conditions: Homo sapiens; for activity at 10 µM: NCI-H226, single dose 10 μM, read-out: percent cell growth promotion
NCI-H522 = test: NCI 60 cell panel SRB screen; format: cell-based; conditions: Homo sapiens; for activity at 10 µM: NCI-H522, single dose 10 μM, read-out: percent cell growth promotion
HCC-2998 = test: NCI 60 cell panel SRB screen; format: cell-based; conditions: Homo sapiens; for activity at 10 µM: HCC-2998, single dose 10 μM, read-out: percent cell growth promotion
HCT-15 = test: NCI 60 cell panel SRB screen; format: cell-based; conditions: Homo sapiens; for activity at 10 µM: HCT-15, single dose 10 μM, read-out: percent cell growth promotion
SNB-19 = test: NCI 60 cell panel SRB screen; format: cell-based; conditions: Homo sapiens; for activity at 10 µM: SNB-19, single dose 10 μM, read-out: percent cell growth promotion
SNB-75 = test: NCI 60 cell panel SRB screen; format: cell-based; conditions: Homo sapiens; for activity at 10 µM: SNB-75, single dose 10 μM, read-out: percent cell growth promotion
MDA-MB-435 = test: NCI 60 cell panel SRB screen; format: cell-based; conditions: Homo sapiens; for activity at 10 µM: MDA-MB-435, read-out: percent cell growth promotion
OVCAR-3 = test: NCI 60 cell panel SRB screen; format: cell-based; conditions: Homo sapiens; for activity at 10 µM: OVCAR-3, single dose 10 μM, read-out: percent cell growth promotion
OVCAR-4 = test: NCI 60 cell panel SRB screen; format: cell-based; conditions: Homo sapiens; for activity at 10 µM: OVCAR-4, single dose 10 μM, read-out: percent cell growth promotion
OVCAR-5 = test: NCI 60 cell panel SRB screen; format: cell-based; conditions: Homo sapiens; for activity at 10 µM: OVCAR-5, single dose 10 μM, read-out: percent cell growth promotion
CAKI-1 = test: NCI 60 cell panel SRB screen; format: cell-based, human; conditions: for activity at 10 µM: CAKI-1, single dose 10 μM, read-out: percent cell growth promotion
RXF 393 = test: NCI 60 cell panel SRB screen; format: cell-based; conditions: Homo sapiens; for activity at 10 µM: RXF 393, single dose 10 μM, read-out: percent cell growth promotion
TK-10 = test: NCI 60 cell panel SRB screen; format: cell-based, human; conditions: for activity at 10 µM: TK-10, single dose 10 μM, read-out: percent cell growth promotion
T-47D = test: NCI 60 cell panel SRB screen; format: cell-based; conditions: Homo sapiens, T47D; for activity at 10 µM: read-out: percent cell growth promotion
full NCI 60 cell panel = test: NCI 60 cell panel SRB screen, whole panel; format: cell-based, human; conditions: for activity at 10 µM: mean over the panel, single dose 10 μM, read-out: Mean percent cell growth promotion

SMILES: O=C(Nc1ccc(Cl)cc1)Nc1ccc(Oc2nncc3ccccc23)cc1 [Compound 7b, 1–(4-Chlorophenyl)-3–(4-(phthalazin-1-yloxy)phenyl)urea]
- GI50 (K-562; K-562, 5 log dose): 0.37 µM
- IC (TGI) (K-562; K-562, 5 log dose): > 100 µM
- CC50 (K-562; K-562, 5 log dose, 48 h, read-out: LC50 (the source's name)): > 100 µM
- activity at 10 µM (K-562): 5.58%
- GI50 (MOLT-4; MOLT-4, 5 log dose): 0.37 µM
- IC (TGI) (MOLT-4; MOLT-4, 5 log dose): > 100 µM
- CC50 (MOLT-4; MOLT-4, 5 log dose, 48 h, read-out: LC50 (the source's name)): > 100 µM
- activity at 10 µM (MOLT-4): 3.99%
- GI50 (A549/ATCC; 5 log dose): 2.81 µM
- IC (TGI) (A549/ATCC; 5 log dose): 11.5 µM
- LC50 (concentration killing 50% of cells) (A549/ATCC; 5 log dose, 48 h): > 100 µM
- activity at 10 µM (A549/ATCC): 40%
- GI50 (NCI-H226; NCI-H226, 5 log dose): 0.62 µM
- IC (TGI) (NCI-H226; NCI-H226, 5 log dose): 5.42 µM
- CC50 (NCI-H226; NCI-H226, 5 log dose, 48 h, read-out: LC50 (the source's name)): > 100 µM
- activity at 10 µM (NCI-H226): -54.5%
- GI50 (NCI-H522; NCI-H522, 5 log dose): 0.19 µM
- IC (TGI) (NCI-H522; NCI-H522, 5 log dose): 0.41 µM
- CC50 (NCI-H522; NCI-H522, 5 log dose, 48 h, read-out: LC50 (the source's name)): 0.91 µM
- activity at 10 µM (NCI-H522): -46.4%
- GI50 (HCC-2998; HCC-2998, 5 log dose): 1.84 µM
- IC (TGI) (HCC-2998; HCC-2998, 5 log dose): 3.48 µM
- LC50 (50% lethal concentration) (HCC-2998; HCC-2998, 5 log dose, 48 h): 6.57 µM
- activity at 10 µM (HCC-2998): -42.2%
- GI50 (HCT-15; HCT-15, 5 log dose): 0.96 µM
- IC (TGI) (HCT-15; HCT-15, 5 log dose): 3.08 µM
- CC50 (HCT-15; HCT-15, 5 log dose, 48 h, read-out: LC50 (the source's name)): 9.67 µM
- activity at 10 µM (HCT-15): 2.76%
- GI50 (SNB-19; SNB-19, 5 log dose): 1.74 µM
- IC (TGI) (SNB-19; SNB-19, 5 log dose): 4.79 µM
- CC50 (SNB-19; SNB-19, 5 log dose, 48 h, read-out: LC50 (the source's name)): 58.3 µM
- activity at 10 µM (SNB-19): -76.5%
- GI50 (SNB-75; SNB-75, 5 log dose): 0.45 µM
- IC (TGI) (SNB-75; SNB-75, 5 log dose): 1.95 µM
- LC50 (concentration killing 50% of cells) (SNB-75; SNB-75, 5 log dose, 48 h): 5.2 µM
- activity at 10 µM (SNB-75): -3.13%
- GI50 (MDA-MB-435; MDA-MB-435): 0.29 µM
- IC (TGI) (MDA-MB-435; MDA-MB-435, read-out: TGI): 1.07 µM
- activity at 10 µM (MDA-MB-435): -33.3%
- CC50 (MDA-MB-435; MDA-MB-435, 5 log dose, 48 h, read-out: LC50 (the source's name)): 5.65 µM
- GI50 (OVCAR-3; OVCAR-3, 5 log dose): 0.35 µM
- IC (TGI) (OVCAR-3; OVCAR-3, 5 log dose): 1.15 µM
- CC50 (OVCAR-3; OVCAR-3, 5 log dose, 48 h, read-out: LC50 (the source's name)): 3.95 µM
- activity at 10 µM (OVCAR-3): -62.8%
- GI50 (OVCAR-4; OVCAR-4, 5 log dose): 0.75 µM
- IC (TGI) (OVCAR-4; OVCAR-4, 5 log dose): 3.49 µM
- CC50 (OVCAR-4; OVCAR-4, 5 log dose, 48 h, read-out: LC50 (the source's name)): 17 µM
- activity at 10 µM (OVCAR-4): -20.8%
- GI50 (OVCAR-5; OVCAR-5, 5 log dose): 1.89 µM
- IC (TGI) (OVCAR-5; OVCAR-5, 5 log dose): 4.47 µM
- CC50 (OVCAR-5; OVCAR-5, 5 log dose, 48 h, read-out: LC50 (the source's name)): 12.6 µM
- activity at 10 µM (OVCAR-5): -16%
- TGI (CAKI-1; CAKI-1, 5 log dose): 8.70 µM
- GI50 (CAKI-1; Homo sapiens, CAKI-1, 5 log dose): 2.72 µM
- CC50 (CAKI-1; Homo sapiens, CAKI-1, 5 log dose, 48 h, read-out: LC50 (the source's name)): 43.9 µM
- activity at 10 µM (CAKI-1; Homo sapiens): 18.7%
- GI50 (RXF 393; RXF 393, 5 log dose): 0.31 µM
- IC (TGI) (RXF 393; RXF 393, 5 log dose): 1.05 µM
- CC50 (RXF 393; RXF 393, 5 log dose, 48 h, read-out: LC50 (the source's name)): 3.74 µM
- activity at 10 µM (RXF 393): -91.2%
- GI50 (TK-10; Homo sapiens, TK-10, 5 log dose): 2.12 µM
- CC50 (TK-10; Homo sapiens, TK-10, 5 log dose, 48 h, read-out: LC50 (the source's name)): 8.64 µM
- activity at 10 µM (TK-10; Homo sapiens): 27.5%
- TGI (TK-10; TK-10, 5 log dose): 4.28 µM
- GI50 (T-47D): 0.24 µM
- IC (TGI) (T-47D; read-out: TGI): 7.68 µM
- activity at 10 µM (T-47D): 10.2%
- CC50 (T-47D; T-47D, 5 log dose, 48 h, read-out: LC50 (the source's name)): > 100 µM
- activity at 10 µM (full NCI 60 cell panel; Homo sapiens, 60 cell): -6.99%
- inhibition at 10 µM (full NCI 60 cell panel; Homo sapiens, 60 cell, single dose 10 µM, full panel, read-out: mean growth inhibition): 107%

SMILES: Cc1nnc(Oc2ccc(NC(=O)Nc3ccc(Cl)cc3)cc2)c2ccccc12 [Compound 7e, 1–(4-Chlorophenyl)-3–(4-(4-methylphthalazin-1-yloxy)phenyl)urea]
- activity at 10 µM (K-562): 61.1%
- activity at 10 µM (MOLT-4): 36.1%
- activity at 10 µM (A549/ATCC): 61.5%
- activity at 10 µM (NCI-H226): 79.1%
- activity at 10 µM (NCI-H522): 63.8%
- activity at 10 µM (HCC-2998): 110%
- activity at 10 µM (HCT-15): 69.5%
- activity at 10 µM (SNB-19): 84.1%
- activity at 10 µM (SNB-75): 47.3%
- activity at 10 µM (MDA-MB-435): 79.2%
- activity at 10 µM (OVCAR-3): 69.8%
- activity at 10 µM (OVCAR-4): 70.8%
- activity at 10 µM (OVCAR-5): 119%
- activity at 10 µM (CAKI-1; Homo sapiens): 79.7%
- activity at 10 µM (RXF 393): 82%
- activity at 10 µM (TK-10; Homo sapiens): 84.8%
- activity at 10 µM (T-47D): 57.9%
- activity at 10 µM (full NCI 60 cell panel; Homo sapiens, 60 cell): 72.8%
- cell growth inhibition, in words (full NCI 60 cell panel; single dose 10 µM): moderate cell growth inhibition against leukaemia and breast cell lines

SMILES: CCOC(=O)N1CCN(c2nncc3ccccc23)CC1 [Compound 8a, Ethyl 4-(phthalazin-1-yl)piperazine-1-carboxylate]
- activity at 10 µM (K-562): 110%
- activity at 10 µM (MOLT-4): 98.6%
- activity at 10 µM (A549/ATCC): 99.6%
- activity at 10 µM (NCI-H226): 100%
- activity at 10 µM (NCI-H522): 99.8%
- activity at 10 µM (HCC-2998): 117%
- activity at 10 µM (HCT-15): 111%
- activity at 10 µM (SNB-19): 103%
- activity at 10 µM (SNB-75): 104%
- activity at 10 µM (MDA-MB-435): 105%
- activity at 10 µM (OVCAR-3): 105%
- activity at 10 µM (OVCAR-4): 107%
- activity at 10 µM (OVCAR-5): 128%
- activity at 10 µM (CAKI-1; Homo sapiens): 96.1%
- activity at 10 µM (RXF 393): 102%
- activity at 10 µM (TK-10; Homo sapiens): 110%
- activity at 10 µM (T-47D): 100%
- activity at 10 µM (full NCI 60 cell panel; Homo sapiens, 60 cell): 105%
- cell growth inhibition, in words (full NCI 60 cell panel; single dose 10 µM): nor the piperazines (8a, 8d, 8f, 8g, 8h and 8i) showed any significant cell line growth inhibition

SMILES: c1ccc(N2CCN(c3nncc4ccccc34)CC2)nc1 [Compound 8d, 1–(4-(Pyridin-2-yl)piperazin-1-yl)phthalazine]
- activity at 10 µM (K-562): 106%
- activity at 10 µM (MOLT-4): 106%
- activity at 10 µM (A549/ATCC): 100%
- activity at 10 µM (NCI-H226): 98.1%
- activity at 10 µM (NCI-H522): 99.4%
- activity at 10 µM (HCC-2998): 117%
- activity at 10 µM (HCT-15): 108%
- activity at 10 µM (SNB-19): 113%
- activity at 10 µM (SNB-75): 105%
- activity at 10 µM (MDA-MB-435): 104%
- activity at 10 µM (OVCAR-3): 99.9%
- activity at 10 µM (OVCAR-4): 109%
- activity at 10 µM (OVCAR-5): 105%
- activity at 10 µM (CAKI-1; Homo sapiens): 109%
- activity at 10 µM (RXF 393): 108%
- activity at 10 µM (TK-10; Homo sapiens): 105%
- activity at 10 µM (T-47D): 101%
- activity at 10 µM (full NCI 60 cell panel; Homo sapiens, 60 cell): 104%
- cell growth inhibition, in words (full NCI 60 cell panel; single dose 10 µM): nor the piperazines (8a, 8d, 8f, 8g, 8h and 8i) showed any significant cell line growth inhibition
